{"source": "patent US20260306490A1", "about": "“PIM1 INHIBITOR FOR TREATING MYELOPROLIFERATIVE NEOPLASMS” (Sumitomo Pharma America, Inc., priority 2022, published 2026)", "key": {"[1]": {"tested_on": "PIM1", "details": "cited from earlier work"}, "[2]": {"tested_on": "PIM2", "details": "cited from earlier work"}, "[3]": {"tested_on": "PIM3", "details": "cited from earlier work"}, "[4]": {"tested_on": "R/R AML", "details": "cited from earlier work"}, "[5]": {"tested_on": "Solid tumor", "details": "n = 35; cited from earlier work"}, "[6]": {"tested_on": "hematology parameters (platelet counts)", "assay": "CGLP preclinical dog study, hematology parameters", "assay_type": "in vivo"}, "[7]": {"tested_on": "MF patients", "details": "JAKARTA, monotherapy 400 mg QD, N = 96; cited from earlier work"}, "[8]": {"tested_on": "R/R MF", "details": "≥100 × 10^9/L PLT, monotherapy; cited from earlier work"}, "[9]": {"details": "read-out: Preclinical IC50, PIM1"}, "[10]": {"details": "read-out: Preclinical IC50, PIM2"}, "[11]": {"details": "read-out: Preclinical IC50, PIM3"}, "[12]": {"details": "R/R AML (n = 30), Other (n = 9)"}}, "note": "Like-named read-outs stand apart in the source and are kept apart here."}
{"smiles": "N[C@@H]1CCCN(c2c(/C=C3\\SC(=O)NC3=O)cccc2-c2ccccc2)C1", "note": "[AZD1208]", "values": [{"measurement": "IC50", "setting": "[1]; [9]", "value": "[…]"}, {"measurement": "IC50", "setting": "[2]; [10]", "value": "[…]"}, {"measurement": "IC50", "setting": "[3]; [11]", "value": 1.9, "unit": "nM"}, {"measurement": "Efficacy, circulating blasts (in several patients)", "setting": "[4]; R/R AML, n = 32", "value": "response, reduction"}, {"measurement": "Hem AE, Febrile neutropenia", "setting": "[4]; R/R AML, n = 32", "value": "(28%)"}, {"measurement": "Non-hem AE, diarrhea", "setting": "[4]; R/R AML, n = 32", "value": "diarrhea (44%),"}, {"measurement": "Non-hem AE, nausea", "setting": "[4]; R/R AML, n = 32", "value": "Nausea (47%)"}, {"measurement": "Non-hem AE, pneumonia", "setting": "[4]; R/R AML, n = 32", "value": "pneumonia (19%)"}, {"measurement": "Non-hem AE, vomiting", "setting": "[4]; R/R AML, n = 32", "value": "vomiting (31%),"}, {"measurement": "Efficacy, stable disease for ≥6 weeks", "setting": "[5]", "value": "≥6", "unit": "weeks in 13 patients"}, {"measurement": "Hem AE, Anemia", "setting": "[5]", "value": "Anemia (51%),"}, {"measurement": "Hem AE, Thrombocytopenia", "setting": "[5]", "value": "(14-26%)"}, {"measurement": "Hem AE, WBC decreased", "setting": "[5]", "value": "WBC decreased (26%)"}, {"measurement": "Non-hem AE, diarrhea", "setting": "[5]", "value": "Diarrhea (83%),"}, {"measurement": "Non-hem AE, nausea", "setting": "[5]", "value": "nausea (74%)"}, {"measurement": "Non-hem AE, vomiting", "setting": "[5]", "value": "vomiting (54%),"}]}
{"smiles": "CN1CCC(CNc2ccc3ncc(-c4cccc(OC(F)(F)F)c4)n3n2)CC1", "note": "[Compound (2)]", "values": [{"measurement": "hematology parameters", "setting": "[6]; 10 mg/kg/day, either sex", "value": "not considered to be altered"}, {"measurement": "platelet counts (PLT) increase", "setting": "[6]; 30 mg/kg/day, females", "value": 12.1, "unit": "%"}, {"measurement": "platelet counts (PLT) increase", "setting": "[6]; 30 mg/kg/day, males", "value": 16.5, "unit": "%"}, {"measurement": "platelet counts (PLT) increase", "setting": "[6]; 90 mg/kg/day, females", "value": 26.3, "unit": "%"}, {"measurement": "platelet counts (PLT) increase", "setting": "[6]; 90 mg/kg/day, males", "value": 20, "unit": "%"}, {"measurement": "IC50", "setting": "[1]; unit inferred, read-out: PIM1 IC50", "value": "[…]"}, {"measurement": "IC50", "setting": "[2]; unit inferred, read-out: PIM2 IC50", "value": 980, "unit": "nM"}, {"measurement": "IC50", "setting": "[3]; unit inferred, read-out: PIM3 IC50", "value": 20, "unit": "nM"}]}
{"smiles": "Cc1cnc(Nc2ccc(OCCN3CCCC3)cc2)nc1Nc1cccc(S(=O)(=O)NC(C)(C)C)c1", "note": "[Fedratinib, fedratinib]", "values": [{"measurement": "TEAE Anemia, All Gr", "setting": "[7]", "value": 99, "unit": "%"}, {"measurement": "TEAE Anemia, ≥3 Gr", "setting": "[7]", "value": 43, "unit": "%"}, {"measurement": "TEAE Neutropenia, All Gr", "setting": "[7]", "value": 28, "unit": "%"}, {"measurement": "TEAE Neutropenia, ≥3 Gr", "setting": "[7]", "value": 8, "unit": "%"}, {"measurement": "TEAE Thrombocytopenia, All Gr", "setting": "[7]", "value": 63, "unit": "%"}, {"measurement": "TEAE Thrombocytopenia, ≥3 Gr", "setting": "[7]", "value": 17, "unit": "%"}]}
{"smiles": "C[C@H]1CN(c2c(NC(=O)c3ccc(F)c(-c4c(F)cccc4F)n3)cnc3c2CC[C@H]3O)C[C@@H](N)[C@@H]1O", "note": "[INCB053914]", "values": [{"measurement": "IC50", "setting": "[1]; [9]", "value": 0.24, "unit": "nM"}, {"measurement": "IC50", "setting": "[2]; [10]", "value": 30, "unit": "nM"}, {"measurement": "IC50", "setting": "[3]; [11]", "value": 0.12, "unit": "nM"}, {"measurement": "Hem AE, G3+ anemia", "setting": "[4]; [12]", "value": "G3+ Anemia (18%)"}, {"measurement": "Hem AE, G3+ thrombocytopenia", "setting": "[4]; [12]", "value": "(13%)"}, {"measurement": "Non-hem AE, ALT/AST increased", "setting": "[4]; [12]", "value": "(36%),"}, {"measurement": "Non-hem AE, diarrhea", "setting": "[4]; [12]", "value": "diarrhea (21%), rash"}, {"measurement": "Non-hem AE, nausea", "setting": "[4]; [12]", "value": "nausea (23%),"}, {"measurement": "Non-hem AE, rash", "setting": "[4]; [12]", "value": "(15%)"}]}
{"smiles": "CC1(C)CCC(c2ccc(Cl)cc2)=C(CN2CCN(c3ccc(C(=O)NS(=O)(=O)c4ccc(N[C@H](CCN5CCOCC5)CSc5ccccc5)c(S(=O)(=O)C(F)(F)F)c4)cc3)CC2)C1", "note": "[Navitoclax, navitoclax]", "values": [{"measurement": "SVR35 at Week 24", "setting": "[8]", "value": 7, "unit": "%"}, {"measurement": "TSS50 at Week 24", "setting": "[8]", "value": 10, "unit": "%"}]}
